{"source": "paper PMC8192493", "about": "(Journal of medicinal chemistry, 2021)", "key": {"[1]": {"tested_on": "VRE 700221 (E. faecium ATCC 700221)", "assay": "MIC broth microdilution, VRE 700221", "conditions": "16 h"}, "[2]": {"tested_on": "MRSE 35984 biofilms", "assay": "Calgary biofilm device", "conditions": "Staphylococcus epidermidis, read-out: MRSE 35984 MBC"}, "[3]": {"tested_on": "M. tuberculosis H37Ra (ATCC 25177)", "assay": "MIC assay for Mtb H37Ra", "assay_type": "cell-based", "conditions": "Mycobacterium tuberculosis, ATCC25177|H37RA, 168 h, read-out: MIC Mtb H37Ra"}, "[4]": {"tested_on": "six MRSA clinical isolates", "assay": "MIC assays against MRSA clinical isolates", "assay_type": "cell-based", "conditions": "Staphylococcus aureus, read-out: MIC against six MRSA clinical isolates"}, "[5]": {"tested_on": "iron uptake genes isdB, sfaA, sbnC, MW0695 in MRSA-1707 biofilms", "conditions": "5 μM; previous work ref 39; cited from earlier work"}, "[6]": {"tested_on": "iron uptake genes isdB, sfaA, sbnC, MW0695 in MRSA-1707 biofilms", "assay": "RT-qPCR of iron uptake genes in MRSA biofilms", "conditions": "established biofilms, 4 h, 1 μM or 1/10 × MBEC"}, "[7]": {"tested_on": "J774 macrophages", "assay": "Alamar Blue cytotoxicity, J774 macrophages", "assay_type": "cell-based", "conditions": "IC50 J774 MΦ and HepG2 vs MIC against MRSA, MRSE, VRE strains"}, "[8]": {"tested_on": "MRSA, MRSE, and VRE strains", "assay": "MIC summarised across several Gram-positive strains"}}, "note": "“Also recorded” adds a separate entry of the source.", "data": [{"smiles": "CN[C@H](CC(C)C)C(=O)N[C@H]1C(=O)N[C@@H](CC(N)=O)C(=O)N[C@H]2C(=O)N[C@H]3C(=O)N[C@H](C(=O)N[C@H](C(=O)O)c4cc(O)cc(O)c4-c4cc3ccc4O)[C@H](O)c3ccc(c(Cl)c3)Oc3cc2cc(c3O[C@@H]2O[C@H](CO)[C@@H](O)[C@H](O)[C@H]2O[C@H]2C[C@](C)(N)[C@H](O)[C@H](C)O2)Oc2ccc(cc2Cl)[C@H]1O", "note": "[vancomycin]", "values": [{"measurement": "MIC VRE 700221", "setting": "[1]; BHI, 37 °C, d lowest test concentration", "value": ">100", "unit": "µM"}, {"measurement": "MIC", "setting": "[1]; Enterococcus, ATCC700221|VRE, read-out: MIC VRE 700221", "value": "> 100", "unit": "µM"}, {"measurement": "MBC", "setting": "[2]", "value": 3, "unit": "µM"}]}, {"smiles": "CN[C@@H]1[C@H](O[C@H]2[C@H](O[C@H]3[C@H](O)[C@@H](O)[C@H](N=C(N)N)[C@@H](O)[C@@H]3N=C(N)N)O[C@@H](C)[C@]2(O)C=O)O[C@@H](CO)[C@H](O)[C@H]1O", "note": "[streptomycin]", "values": [{"measurement": "MIC", "setting": "[3]", "value": 1.32, "unit": "µM"}]}, {"smiles": "CCSc1c(Br)c(O)c2nc3cccc(C)c3nc2c1Br", "note": "[HP 45, 2,4-Dibromo-3-(ethylthio)-6-methylphenazin-1-ol]", "values": [{"measurement": "MIC", "setting": "[4]", "value": "0.31 to 0.63", "unit": "µM"}]}, {"smiles": "O=C(O)CN(CCN(CC(=O)O)CC(=O)O)CC(=O)O", "note": "[EDTA, ethylenediaminetetraacetic acid]", "values": [{"measurement": "upregulation of iron uptake genes", "setting": "[5]", "value": "do not upregulate"}]}, {"smiles": "Oc1c(Br)cc(Br)c2nc3ccccc3nc12", "note": "[HP 3]", "values": [{"measurement": "MIC", "setting": "[4]", "value": "1.25 to 2.5", "unit": "µM"}]}, {"smiles": "c1ccc(CN(CCN(Cc2ccccn2)Cc2ccccn2)Cc2ccccn2)nc1", "note": "[TPEN, N,N,N′,N′-tetrakis(2-pyridinylmethyl)-1,2-ethanediamine]", "values": [{"measurement": "upregulation of iron uptake genes", "setting": "[5]", "value": "do not upregulate"}]}, {"smiles": "Oc1c(Br)c(Cl)c(Br)c2nc3c(Cl)cc(Cl)cc3nc12", "note": "[HP 34, 2,4-Dibromo-3,6,8-trichlorophenazin-1-ol]", "values": [{"measurement": "MIC", "setting": "[4]", "value": "0.47 to 1.25", "unit": "µM"}]}, {"smiles": "Cc1cccc2nc3c(O)c(Br)c(Cl)c(Br)c3nc12", "note": "[HP 29, 2,4-Dibromo-3-chloro-6-methylphenazin-1-ol]", "values": [{"measurement": "induction of iron starvation (upregulation of iron uptake genes)", "setting": "[6]", "value": "induce rapid iron starvation; also recorded: rapidly induce iron starvation"}, {"measurement": "MIC", "setting": "[4]", "value": "0.06 to 0.12", "unit": "µM"}, {"measurement": "selectivity index (SI)", "setting": "[7]", "value": "> 2000"}, {"measurement": "MICs against all Gram-positive strains in the panel", "setting": "[8]", "value": "submicromolar"}]}]}
